Values of other authors in PubChem BioAssay AID1259409 (Chemical Carcinogenesis Research Information System (CCRIS), 2018).
Values joined by “and” are separate entries in the source; they are usually repeats but may differ in a detail not shown here. Identical values can stand only once.

Test system: rodent chemically induced tumor inhibition, incidence and multiplicity
Test: CCRIS tumor inhibitor studies
Details: for tumour outcome (control, treated, inhibition, significance): Carcinogen: 7,12-DIMETHYLBENZ[A]ANTHRACENE, 57-97-6

SMILES: COc1ccc2c(c1)c(CC(=O)O)c(C)n2C(=O)c1ccc(Cl)cc1
- outcome (Carcinogen: 4-HYDROXYBUTYL(BUTYL)NITROSAMINE [3817-11-6], Dose [Inhibitor]: 20 MG/KG IN DIET 1 WK BEFORE CARCINOGEN (STUDY DURATION: 32 WK), Route [Inhibitor]: DIET, Species: MOUSE, Strain/Sex: B6D2F1/MALE, Target Tissue: Type of Lesion: BLADDER: CARCINOMA, Dose [Carcinogen]: 7.5 MG/WK FOR 12 WK): 32, 3, 91%
- outcome (Carcinogen: 4-HYDROXYBUTYL(BUTYL)NITROSAMINE [3817-11-6], Dose [Inhibitor]: 20 MG/KG IN DIET 20 WK AFTER LAST CARCINOGEN DOSE (STUDY DURATION: 61 WK), Route [Inhibitor]: DIET, Species: MOUSE, Strain/Sex: B6D2F1/MALE, Target Tissue: Type of Lesion: BLADDER: CARCINOMA, Dose [Carcinogen]: 7.5 MG/WK FOR 12 WK): 66, 42, 36%
- outcome (Carcinogen: 4-HYDROXYBUTYL(BUTYL)NITROSAMINE [3817-11-6], Dose [Inhibitor]: 20 MG/KG IN DIET FOR 30 WK AT 1 WK AFTER LAST CARCINOGEN TREATMENT (STUDY DURATION: 42 WK), Route [Inhibitor]: DIET, Species: MOUSE, Strain/Sex: B6D2F1/MALE, Target Tissue: Type of Lesion: BLADDER: CARCINOMA, Dose [Carcinogen]: 7.5 MG/WK FOR 12 WK): 31, 7, 77%
- tumour outcome (control, treated, inhibition, significance) (Dose [Inhibitor]: 0, 0.004% IN 20% FAT DIET CONTAINING 0.5% LINOLEIC ACID BEGINNING 7 D POST CARCINOGEN DOSE AND CONTINUING FOR DURATION O, Route [Inhibitor]: ORAL, Species: RAT, Strain/Sex: SPRAGUE-DAWLEY/FEMALE, Target Tissue: Type of Lesion: MAMMARY GLAND: ADENOCARCINOMA, Dose [Carcinogen]: 5 MG AT 50-53 DAYS OF AGE, Promoter: NONE USED): 56%, 62%, -11%, not calculated
- tumour outcome (control, treated, inhibition, significance) (Dose [Inhibitor]: 0, 0.004% IN 20% FAT DIET CONTAINING 4% LINOLEIC ACID BEGINNING 7 D POST CARCINOGEN DOSE AND CONTINUING FOR DURATION OF, Route [Inhibitor]: ORAL, Species: RAT, Strain/Sex: SPRAGUE-DAWLEY/FEMALE, Target Tissue: Type of Lesion: MAMMARY GLAND: ADENOCARCINOMA, Dose [Carcinogen]: 5 MG AT 50-53 DAYS OF AGE, Promoter: NONE USED): 53%, 39%, 26%, not calculated
- tumour outcome (control, treated, inhibition, significance) (Dose [Inhibitor]: 0, 0.004% IN 20% FAT DIET CONTAINING 12% LINOLEIC ACID BEGINNING 7 D POST CARCINOGEN DOSE AND CONTINUING FOR DURATION OF, Route [Inhibitor]: ORAL, Species: RAT, Strain/Sex: SPRAGUE-DAWLEY/FEMALE, Target Tissue: Type of Lesion: MAMMARY GLAND: ADENOCARCINOMA, Dose [Carcinogen]: 5 MG AT 50-53 DAYS OF AGE, Promoter: NONE USED): 69%, 50%, 28%, not calculated
- tumour outcome (control, treated, inhibition, significance) (Dose [Inhibitor]: 0, 0.005% IN HIGH-FAT (20% CORN OIL) DIET BEGINNING 7 D POST CARCINOGEN DOSE (STUDY DURATION: 20 WK), Route [Inhibitor]: ORAL, Species: RAT, Strain/Sex: SPRAGUE-DAWLEY/FEMALE, Target Tissue: Type of Lesion: MAMMARY GLAND: ADENOCARCINOMA, Dose [Carcinogen]: 5 MG ONCE, Promoter: NONE USED): 26/32 (81%), 10/33 (30%), 63%, not calculated
- tumour outcome (control, treated, inhibition, significance) (Dose [Inhibitor]: 0, 0.005% IN HIGH-FAT DIET BEGINNING 7 D POST CARCINOGEN TREATMENT (STUDY DURATION: 48 WK), Route [Inhibitor]: ORAL, Species: RAT, Strain/Sex: SPRAGUE-DAWLEY/FEMALE, Target Tissue: Type of Lesion: MAMMARY GLAND: ADENOCARCINOMA, Dose [Carcinogen]: 5 MG ONCE AT 50 D OF AGE, Promoter: NONE USED): 93%, 47%, 49%, p<0.01
- tumour outcome (control, treated, inhibition, significance) (Dose [Inhibitor]: 0, 0.005% IN LOW-FAT (0.5% CORN OIL) DIET BEGINNING 7 D POST CARCINOGEN DOSE (STUDY DURATION: 20 WK), Route [Inhibitor]: ORAL, Species: RAT, Strain/Sex: SPRAGUE-DAWLEY/FEMALE, Target Tissue: Type of Lesion: MAMMARY GLAND: ADENOCARCINOMA, Dose [Carcinogen]: 5 MG ONCE, Promoter: NONE USED): 9/33 (27%), 11/32 (34%), -26%, not calculated
- tumour outcome (control, treated, inhibition, significance) (Dose [Inhibitor]: 0, 0.005% IN LOW-FAT DIET BEGINNING 7 D POST CARCINOGEN TREATMENT (STUDY DURATION: 48 WK), Route [Inhibitor]: ORAL, Species: RAT, Strain/Sex: SPRAGUE-DAWLEY/FEMALE, Target Tissue: Type of Lesion: MAMMARY GLAND: ADENOCARCINOMA, Dose [Carcinogen]: 5 MG ONCE AT 50 D OF AGE, Promoter: NONE USED): 40%, 33%, 18%, not significant
- tumour outcome (control, treated, inhibition, significance) (Dose [Inhibitor]: 0, 0.1 UMOL 2/WK FOR 18 WK APPLIED 10-15 MIN PRIOR TO EACH PROMOTER DOSE (STUDY DURATION: 20 WK), Route [Inhibitor]: DERMAL, Species: MOUSE, Strain/Sex: CD-1/FEMALE, Target Tissue: Type of Lesion: SKIN: TUMOR, Dose [Carcinogen]: 200 NMOL ONCE, Promoter: 12-O-TETRADECANOYL-13-ACETATE, 16561-29-8): 95%, 80%, 16%, not significant
- tumour outcome (control, treated, inhibition, significance) (Dose [Inhibitor]: 0, 0.3 UMOL 2/WK FOR 18 WK APPLIED 10-15 MIN PRIOR TO EACH PROMOTER DOSE (STUDY DURATION: 20 WK), Route [Inhibitor]: DERMAL, Species: MOUSE, Strain/Sex: CD-1/FEMALE, Target Tissue: Type of Lesion: SKIN: TUMOR, Dose [Carcinogen]: 200 NMOL ONCE, Promoter: 12-O-TETRADECANOYL-13-ACETATE, 16561-29-8): 100%, 95%, 5%, not significant
- tumour outcome (control, treated, inhibition, significance) (Dose [Inhibitor]: 0, 20 UG/ML IN DRINKING WATER 24 HR/D 3 D/WK FOR 26 WK BEGINNING AT 45 D OF AGE (STUDY DURATION: 26 WK), Route [Inhibitor]: ORAL, Species: RAT, Strain/Sex: SD/FEMALE, Target Tissue: Type of Lesion: MAMMARY GLAND: TUMOR, Dose [Carcinogen]: 10 UG/ANIMAL IN CORN OIL INTRAGASTRICALLY ON 45, 50, 55 D OF AGE): 100%, 37%, 63%, p<0.001
- tumour outcome (control, treated, inhibition, significance) (Dose [Inhibitor]: 0.004% DIET FOR 22 WK STARTING 3 D AFTER CARCINOGEN ADMINISTRATION (STUDY DURATION: 22 WK), Route [Inhibitor]: ORAL, Species: RAT, Strain/Sex: SPRAGUE-DAWLEY/FEMALE, Target Tissue: Type of Lesion: MAMMARY GLANDS: ADENOCARCINOMA, Dose [Carcinogen]: 5 MG ONCE, Promoter: NONE USED): 44%, 41%, 7%, not significant and 59%, 38%, 36%, not significant
- tumour outcome (control, treated, inhibition, significance) (Dose [Inhibitor]: 28 NMOL IN 0.2 ML ACETONE APPLIED 2/WK FOR 16 WK 5 HR BEFORE EACH PROMOTER APPLICATION BEGINNING 2 WK POST CARCINOGEN TR, Route [Inhibitor]: DERMAL, Species: MOUSE, Strain/Sex: CD-1/FEMALE, Target Tissue: Type of Lesion: SKIN: PAPILLOMA, Dose [Carcinogen]: 0.2 UMOL IN 0.2 ML ACETONE ONCE, Promoter: 12-O-TETRADECANOYLPHORBOL-13-ACETATE, 16561-29-8): 100%, 97%, 3%, not significant
- tumour outcome (control, treated, inhibition, significance) (Dose [Inhibitor]: 280 NMOL IN 0.2 ML ACETONE APPLIED 2/WK FOR 16 WK 5 HR BEFORE EACH PROMOTER APPLICATION BEGINNING 2 WK POST CARCINOGEN D, Route [Inhibitor]: DERMAL, Species: MOUSE, Strain/Sex: CD-1/FEMALE, Target Tissue: Type of Lesion: SKIN: PAPILLOMA, Dose [Carcinogen]: 0.2 UMOL IN 0.2 ML ACETONE ONCE, Promoter: 12-O-TETRADECANOYLPHORBOL-13-ACETATE, 16561-29-8): 100%, 88%, 12%, not significant
- tumour outcome (control, treated, inhibition, significance) (Dose [Inhibitor]: 280 NMOL IN 0.2 ML ACETONE APPLIED 2/WK FOR 20 WK 2 HR BEFORE EACH PROMOTER APPLICATION BEGINNING 2 WK POST CARCINOGEN D, Route [Inhibitor]: DERMAL, Species: MOUSE, Strain/Sex: CD-1/FEMALE, Target Tissue: Type of Lesion: SKIN: PAPILLOMA, Dose [Carcinogen]: 0.2 UMOL IN 0.2 ML ACETONE ONCE, Promoter: 12-O-TETRADECANOYLPHORBOL-13-ACETATE, 16561-29-8): 90%, 84%, 7%, not significant
- outcome (Carcinogen: ACETOXYMETHYL(METHYLNITROSAMINE), 56856-83-8, Dose [Inhibitor]: 0, 0.001% IN DRINKING WATER FOR 10 WK ADMINISTERED CONCURRENTLY WITH CARCINOGEN TREATMENT (STUDY DURATION: 31 WK), Route [Inhibitor]: ORAL, Species: RAT, Strain/Sex: SPRAGUE-DAWLEY/MALE, Target Tissue: Type of Lesion: LARGE BOWEL: TUMORS, Dose [Carcinogen]: 2 MG/KG BW 1/WK FOR 10 WK, Promoter: NONE USED): 28/29 (97%), 30/30 (100%), -3%, not significant at 21 wk; 20/20 (100%), 17/17 (1
- outcome (Carcinogen: ACETOXYMETHYL(METHYLNITROSAMINE), 56856-83-8, Dose [Inhibitor]: 0, 0.001% IN DRINKING WATER FOR 10 WK BEGINNING POST CARCINOGEN TREATMENT (STUDY DURATION: 31 WK), Route [Inhibitor]: ORAL, Species: RAT, Strain/Sex: SPRAGUE-DAWLEY/MALE, Target Tissue: Type of Lesion: LARGE BOWEL: TUMORS, Dose [Carcinogen]: 2 MG/KG BW 1/WK FOR 10 WK, Promoter: NONE USED): 28/29 (97%), 29/29 (100%), -3%, not significant at 21 wk; 20/20 (100%), 18/18 (1
- outcome (Carcinogen: ACETOXYMETHYL(METHYLNITROSAMINE), 56856-83-8, Dose [Inhibitor]: 0, 0.001% IN DRINKING WATER FOR 20 WK ADMINISTERED CONCURRENTLY WITH CARCINOGEN TREATMENT AND CONTINUED FOR 10 WK POST C, Route [Inhibitor]: ORAL, Species: RAT, Strain/Sex: SPRAGUE-DAWLEY/MALE, Target Tissue: Type of Lesion: LARGE BOWEL: TUMORS, Dose [Carcinogen]: 2 MG/KG BW 1/WK FOR 10 WK, Promoter: NONE USED): 28/29 (97%), 27/30 (90%), 7%, not significant at 21 wk; 20/20 (100%), 20/20 (100
